We go through 28 compounds from US4952589A, “Pyridine compounds” (priority 1984, dated 1990).

One may read the logP as a log measure of how a compound divides between an organic and an aqueous phase.

Structures are written as SMILES. Read-outs that look alike come from different tables or passages of the source.

Series [1] concerns the target T1, brain histamine H2 -receptor (Cavia porcellus, UniProt P47747).
T1 construct: from tissue; host or cells: guinea pig cerebral cortex membranes
The series is described as follows: Inhibition of dimaprit stimulated cyclic AMP accumulation in guinea pig hippocampal slices. The series is classed as cell-based.

For another series, the target named is T2, histamine H2 -receptor (Cavia porcellus, UniProt P47747).
T2 construct: a spontaneously beating isolated portion of the guinea pig right atrium; from tissue; host or cells: guinea pig right atrium
The series is described as follows: Inhibition of histamine-induced tachycardia in the isolated guinea-pig right atrium. The series is classed as cell-based. The procedure:
In the guinea pig atrium test a spontaneously beating isolated portion of the guinea pig right atrium is secured under tension (300 mg) between an anchorage and a transducer in a 15 ml tissue bath and immersed in McEwens solution with constant aeration at a temperature of 37° C. The output from the transducer is amplified. Output is in turn fed to a flat bed recorder. Measured amounts of histamine are added to the tissue bath so that the histamine concentration increases step-wise until the rate of beating reaches a maximum. The tissue bath is washed out and filled with fresh McEwens solution containing compound under test. The solution is left in contact with the tissue for 60 min. and measured amounts of histamine are added again until a maximum rate is recorded. The assay is repeated with increasing concentrations of test compound and the dose of histamine giving 50% of maximum rate is noted. A dose ratio (DR) was calculated by comparing the concentrations of histamine required to produce 50% maximum response in the absence and in the presence of the antagonist. A plot of Log DR-1 against LOG D (the concentration of compound under test) is made and the point of intersection with the Log (DR-1) ordinate is taken as the measure of the activity (pA2 value).

For series [2], the target named is T1, brain histamine H2 -receptor. The series is described as follows: Inhibition of 3H-tiotidine binding to guinea pig cerebral cortex membranes.
Series [3] has as its system maximal electroshock seizures. Kind of series: Anticonvulsant activity: maximal electroshock seizures in mice. Format: in vivo. As to conditions: subcutaneously.
In series [4] the test system is leptazol-induced tonic extensor spasm. Kind of series: Anticonvulsant activity: leptazol (pentylenetetrazol)-induced convulsions in mice. As to conditions: subcutaneously, dose-dependent (stated for Examples 5 and 6). The series is classed as in vivo.
Another series is described as follows: physchem. The following applies: octanol/water.
The subject of series [5] is pial artery dilatation induced by histamine. The series is described as follows: Cat pial artery in situ: antagonism of dilatation induced by perivascularly applied histamine. The series is classed as in vivo.
Series [6] is described as follows: Δ log P (log P octanol/water minus log P cyclohexane/water).
Series [7] in a line: Blood-brain barrier penetration in urethane-anaesthetised rats (radiolabelled compound, infusion). The following applies: rat, intravenous bolus then infusion, approximately 2 μM blood concentrations, at least 2 hours; separate determinations.
Description: The levels of compound and inulin in the blood are monitored and the infusion maintained for at least 2 hours until equilibria (or at least approximate blood plateaux) are achieved. The rat is exsanguinated to minimise blood contamination of the brain. […] The tissues are weighed and then dissolved in a tissue solubiliser, e.g. Soluene-100 overnight at 37° C. in glass vials. […] Glacial acetic acid is added to each vial in order to neutralise the soluene and reduce chemiluminescence. Dimilume-30 (15 ml) is added as the scintillant and the vials left for 12 hours in the scintillation counter in order to further reduce chemiluminescence prior to counting for activity.
Series [8] has as its system pial artery dilatation induced by histamine. As to conditions: cat, locally applied; Wahl & Kuschinsky; cited from earlier work.
For series [9], the system named is maximal electroshock seizures. The following applies: mice; cited from earlier work.
Series [10] relates to leptazol-induced tonic extensor spasm. As to conditions: mice; cited from earlier work.
The subject of series [11] is bicuculline injection induced convulsions. As to conditions: mice; cited from earlier work.
The mark [12] stands for this setting: dimaprit stimulated cyclic AMP accumulation, guinea pig hippocampal slices, read-out: pKi (converted).
The mark [13] stands for this setting: isolated guinea pig right atrium, 37° C., 60 min contact, histamine agonist, read-out: pA2 (converted).
[14] abbreviates: 3H-tiotidine, guinea pig cerebral cortex membranes, read-out: pKi cortex (converted).

T2 sequence (P47747 whole entry): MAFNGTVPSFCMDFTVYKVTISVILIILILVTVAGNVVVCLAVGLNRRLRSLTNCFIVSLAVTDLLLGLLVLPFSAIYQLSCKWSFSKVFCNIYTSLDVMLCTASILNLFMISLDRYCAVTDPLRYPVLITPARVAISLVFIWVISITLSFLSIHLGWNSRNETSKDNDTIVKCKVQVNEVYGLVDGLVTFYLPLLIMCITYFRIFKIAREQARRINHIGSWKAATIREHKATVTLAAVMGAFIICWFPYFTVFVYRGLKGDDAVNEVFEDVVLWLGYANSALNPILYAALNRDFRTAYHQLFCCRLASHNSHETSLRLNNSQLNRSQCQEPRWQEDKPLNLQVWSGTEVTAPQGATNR
T1 sequence (P47747 whole entry): as above

Take `c1cc(CN2CCCCC2)cc(OCCCNc2nc3ccccc3[nH]2)c1` [Description 1, 2-[3-[3-(Piperidinomethyl)phenoxy]propylamino]benzimidazole]: the Ki in series [1] (setting [12]) was 37.2 nM; in series [2] (setting [14]) it was 25.1 nM. The Kb on histamine H2 -receptor (setting [13]) is 63.1 nM.
Regarding `c1cc(CN2CCCCC2)cc(OCCCNc2nc3ccccc3o2)c1` [Example 1, 2-[3-[3-(Piperidinomethyl)phenoxy]propylamino]benzoxazole], the Ki was 21.9 nM in series [1] (setting [12]) and 79.4 nM in [2] (setting [14]). In addition, the Kb on histamine H2 -receptor (setting [13]) is 63.1 nM. Further, the “doses protecting against maximal electroshock seizures” value in series [3] lay within 30 to 100 mg/kg. The “doses protecting against leptazol-induced tonic extensor spasm” value in series [4] was in the range of 10 to 100 mg/kg.
On to `c1cc(CN2CCCCC2)cc(OCCCNc2ccc3ccccc3n2)c1` [Example 3, 2-[3-[3-(Piperidinomethyl)phenoxy]propylamino]quinoline], for which the Ki in series [1] (setting [12]) is 10.7 nM; in [2] (setting [14]) it was 12.6 nM. Besides, on histamine H2 -receptor (setting [13]), the Kb was 631 nM.
For the compound `c1cnc(NCCCOc2cccc(CN3CCCCC3)c2)nc1` [Example 4, 2-[3-[3-(Piperidinomethyl)phenoxy]propylamino]pyrimidine], the values for the Ki in [1] (setting [12]) and in series [2] (setting [14]) were 22900 nM and 3160 nM, respectively. Moreover, on histamine H2 -receptor (setting [13]), the Kb is 2000 nM.
In “physchem”, `c1cc(CN2CCCCC2)cc(OCCCNc2nc3ccccc3s2)c1` [Example 5, 2-[3-[3-(Piperidinomethyl)phenoxy]propylamino]benzthiazole] returned a lipophilicity (logP) of 1.46. Moreover, the Ki in series [1] is 15.8 nM; in [2] it was 79.4 nM. Moreover, the Kb on histamine H2 -receptor was 25.1 nM. Besides, the “antagonism of pial artery dilatation induced by histamine” value in series [5] (intravenous) and in series [5] (locally applied) was “antagonised the pial artery dilatation” in each case. For the same compound, the “Δ log P” value in series [6] is 1.74. Also, the “doses protecting against maximal electroshock seizures” value in series [3] was 30 to 100 mg/kg. The “doses protecting against leptazol-induced tonic extensor spasm” value in series [4] was 10 to 30 mg/kg.
As to `c1ccc(NCCCOc2cccc(CN3CCCCC3)c2)nc1` [Example 6, 2-[3-[3-(Piperidinomethyl)phenoxy]propylamino]pyridine], in the series “physchem”, the logP was 2.88. Moreover, the Ki in [1] (setting [12]) is 56.2 nM; in series [2] (setting [14]) it was 100 nM. Also, at histamine H2 -receptor (setting [13]), the Kb is 794 nM. The “doses protecting against maximal electroshock seizures” value in [3] lay in the range of 30 to 100 mg/kg. The “doses protecting against leptazol-induced tonic extensor spasm” value in series [4] lay within 30 to 100 mg/kg.
With `COc1cccc(NCCCOc2cccc(CN3CCCCC3)c2)n1` [Example 7, 2-[3-[3-(Piperidinomethyl)phenoxy]propylamino]-6-methoxypyridine], the Kb on histamine H2 -receptor (setting [13]) was 794 nM. Also, the Ki in [2] (setting [14]) was 501 nM.
The like results for `CCOc1cc(NCCCOc2cccc(CN3CCCCC3)c2)nc2ccccc12` [Example 8, 2-[3-[3-(Piperidinomethyl)phenoxy]propylamino]-4-ethoxyquinoline] were, in that order, 2000 nM and 200 nM.
As to `c1cc(CN2CCCCC2)cc(OCCCNc2nccs2)c1` [Example 9, 2-[3-[3-(Piperidinomethyl)phenoxy]propylamino]thiazole], the Ki in series [1] (setting [12]) and in series [2] (setting [14]) was 63.1 nM throughout. Further, the Kb at histamine H2 -receptor (setting [13]) is 39.8 nM.
As to `Cn1c(NCCCOc2cccc(CN3CCCCC3)c2)nc2ccccc21` [Example 10, 2-[3-[3-(Piperidinomethyl)phenoxy]propylamino]-1-methylbenzimidazole], the Ki is 2 nM in [1] (setting [12]) and 31.6 nM in series [2] (setting [14]). On histamine H2 -receptor (setting [13]), the Kb was 7940 nM.
As for `c1cncc(NCCCOc2cccc(CN3CCCCC3)c2)c1` [Example 11, 3-[3-[3-(Piperidinomethyl)phenoxy]propylamino]pyridine], the Ki in [2] (setting [14]) was 794 nM.
On to `c1cc(CN2CCCCC2)cc(OCCCNc2nccc3ccccc23)c1` [Example 12, 1-[3-[3-(Piperidinomethyl)phenoxy]propylamino]isoquinoline], for which, at histamine H2 -receptor (setting [13]), the Kb was 398 nM. Besides, the Ki in [2] (setting [14]) was 39.8 nM.
The like results for `Cc1nc(NCCCOc2cccc(CN3CCCCC3)c2)sc1C` [Example 14, 2-[3-[3-(Piperidinomethyl)phenoxy]propylamino]-4,5-dimethylthiazole] were, in that order, 2510 nM and 126 nM.
`c1cc(CN2CCCCC2)cc(OCCNc2nc3ccccc3s2)c1` [Example 16, 2-[2-[3-(Piperidinomethyl)phenoxy]ethylamino]benzthiazole]: the Kb at histamine H2 -receptor (setting [13]) was 6310 nM. Further, in series [2] (setting [14]), the Ki is 794 nM.
Taken in the same sequence, the figures for `c1cc(CN2CCCCC2)cc(OCCCCNc2nc3ccccc3s2)c1` [Example 17, 2-[4-[3-(Piperidinomethyl)phenoxy]butylamino]benzthiazole] were 126 nM and 158 nM.
Take `COc1cccnc1NCCCOc1cccc(CN2CCCCC2)c1` [Example 18, 2-[3-[3-(Piperidinomethyl)phenoxy]propylamino]-3-methoxypyridine]: at histamine H2 -receptor (setting [13]), the Kb was 631 nM. Besides, the Ki in [2] (setting [14]) was 39.8 nM.
Taken in the same sequence, the figures for `c1cc(CN2CCCCC2)cc(OCCCNc2ncnc3ccccc23)c1` [Example 19, 4-[3-[3-(Piperidinomethyl)phenoxy]propylamino]quinazoline] were 20 nM and 25.1 nM.
The like results for `CN(C)Cc1cccc(OCCCNc2nc3ccccc3s2)c1` [Example 21, 2-[3-[3-(Dimethylaminomethyl)phenoxy]propylamino]benzthiazole] were, in that order, 1260 nM and 631 nM.
Taken in the same sequence, the figures for `c1cc(CN2CCCC2)cc(OCCCNc2nc3ccccc3s2)c1` [Example 22, 2-[3-[3-(Pyrrolidinomethyl)phenoxy]propylamino]benzthiazole] were 100 nM and 316 nM.
As for `c1cc(CN2CCCCCC2)cc(OCCCNc2nc3ccccc3s2)c1` [Example 23, 2-[3-[3-(Hexahydroazepinomethyl)phenoxy]propylamino]benzthiazole], at histamine H2 -receptor (setting [13]), the Kb is 316 nM. Moreover, in series [2] (setting [14]), the Ki is 1260 nM.
The like results for `Cc1cc2nc(NCCCOc3cccc(CN4CCCCC4)c3)sc2cc1C` [Example 24, 2-[3-[3-(Piperidinomethyl)phenoxy]propylamino]-5,6-dimethylbenzthiazole] were, in that order, 25100 nM and 398 nM.
The like results for `c1cc(CN2CCCCC2)cc(OCCc2c[nH]cn2)c1` [Example 25, 4(5)-[2-[3-(Piperidinomethyl)phenoxy]ethyl]imidazole] were, in that order, 25100 nM and 794 nM.
`c1cc(CN2CCCCC2)cc(OCCc2nc3ccccc3[nH]2)c1` [Example 26, 2-[2-[3-(Piperidinomethyl)phenoxy]ethyl]-1H-benzimidazole]: on histamine H2 -receptor (setting [13]), the Kb was 20000 nM. Besides, in [2] (setting [14]), the Ki is 3980 nM.
Taken in the same sequence, the figures for `c1cc(CN2CCCCC2)cc(OCCCc2nc3ccccc3[nH]2)c1` [Example 27, 2-[3-[3-(Piperidinomethyl)phenoxy]propyl]-1H-benzimidazole] were 316 nM and 100 nM.
Take `c1cc(CN2CCCCC2)cc(OCCCCc2nc3ccccc3[nH]2)c1` [Example 28, 2-[4-[3-(Piperidinomethyl)phenoxy]butyl]-1H-benzimidazole]: the Kb at histamine H2 -receptor (setting [13]) is 126 nM. Moreover, the Ki in [2] (setting [14]) was 39.8 nM.
Turning to `CN(C)CCCN1c2ccccc2CCc2ccccc21` [Imipramine], the “molar ratio of compound in the brain to compound in the blood” value in [7] worked out at 3.5.
As to `CN/C(=N/CCSCc1nc[nH]c1C)NC#N` [cimetidine, reference compound], the entries for the “antagonism of pial artery dilatation induced by histamine” value in series [5] (intravenous) and in [8] were “failed to antagonise” and “antagonises the pial artery dilatation”, respectively.
Consider `O=C1NC(=O)C(c2ccccc2)(c2ccccc2)N1` [phenytoin sodium], for which the “antagonism of maximal electroshock (MES) convulsions, known drug” value in series [9] is “antagonise”. Moreover, the “antagonism of leptazol (pentylenetetrazol) convulsions, known drug” value in series [10] was “antagonise”. Further, the “antagonism of bicuculline convulsions, known drug” value in series [11] is recorded as “antagonise”.
